Results as given in the supplement of paper PMC13380429.

Columns and labels:
Conditions in all cases: 72 h
[1] = tested on: Caco-2; test: cell viability relative to DMSO; higher = less toxic
[2] = tested on: Calu-3; test: as above
[3] = tested on: HepG2; test: as above
[4] = tested on: U2OS; test: as above
[5] = tested on: Vero E6; test: as above
[6] = tested on: Caco-2; test: relative viability EC50 (midpoint between 100% and the lowest measured viability); higher = less toxic
[7] = tested on: Calu-3; test: as above
[8] = tested on: HepG2; test: as above
[9] = tested on: U2OS; test: as above
[10] = tested on: Vero E6; test: as above
[11] = tested on: Caco-2; test: drug sensitivity score (DSS) for viability; higher = more toxic; extreme values may be limits of the assay
[12] = tested on: Calu-3; test: as above
[13] = tested on: HepG2; test: as above
[14] = tested on: U2OS; test: as above
[15] = tested on: Vero E6; test: as above

`CC(CC(C(N)=O)(c1ccccc1)c1ccccc1)N(C)C` (stereo not given) [aminopentamide] showed a cell viability ([1]; 1 nM) of 95.3%, a cell viability ([1]; 10 nM) of 90.2% and a cell viability ([1]; 100 nM) of 97.1%. For the same compound, the cell viability ([1]; 1000 nM) was 92.8%, the cell viability ([1]; 10000 nM) was 98% and the cell viability ([2]; 1 nM) was 110%. The cell viability ([2]; 10 nM) was 97.8%, the cell viability ([2]; 100 nM) was 104% and the cell viability ([2]; 1000 nM) was 92.2%. It also gave a cell viability ([2]; 10000 nM) of 98.9%, a cell viability ([3]; 1 nM) of 100% and a cell viability ([3]; 10 nM) of 99.6%. It also gave a cell viability ([3]; 100 nM) of 95.2%, a cell viability ([3]; 1000 nM) of 103% and a cell viability ([3]; 10000 nM) of 104%. For the same compound, the cell viability ([4]; 1 nM) was 95.8%, the cell viability ([4]; 10 nM) was 94.9% and the cell viability ([4]; 100 nM) was 101%. It also gave a cell viability ([4]; 1000 nM) of 101%, a cell viability ([4]; 10000 nM) of 101% and a cell viability ([5]; 1 nM) of 95.9%. For the same compound, the cell viability ([5]; 10 nM) was 96.1%, the cell viability ([5]; 100 nM) was 91.5% and the cell viability ([5]; 1000 nM) was 98.3%. For the same compound, the cell viability ([5]; 10000 nM) was 104%, the “relative viability EC50” value [6] was over 10 µM and the “relative viability EC50” value [7] was over 10 µM. The “relative viability EC50” value [8] was over 10 µM, the “relative viability EC50” value [9] was over 10 µM and the “relative viability EC50” value [10] was over 10 µM. The drug sensitivity score [11] was 0, the drug sensitivity score [12] was 0 and the drug sensitivity score [13] was 0. It also gave a drug sensitivity score [14] of 0 and a drug sensitivity score [15] of 0.

Compound `Cc1cnc(C(=O)O)c[n+]1[O-]` [acipimox] has a cell viability ([1]; 1 nM) of 94.3%, a cell viability ([1]; 10 nM) of 100% and a cell viability ([1]; 100 nM) of 95.4%. For the same compound, the cell viability ([1]; 1000 nM) was 93.4%, the cell viability ([1]; 10000 nM) was 87.2% and the cell viability ([2]; 1 nM) was 107%. The cell viability ([2]; 10 nM) was 102%, the cell viability ([2]; 100 nM) was 108% and the cell viability ([2]; 1000 nM) was 94.7%. The cell viability ([2]; 10000 nM) was 97.1%, the cell viability ([3]; 1 nM) was 87.2% and the cell viability ([3]; 10 nM) was 101%. For the same compound, the cell viability ([3]; 100 nM) was 96.6%, the cell viability ([3]; 1000 nM) was 89.5% and the cell viability ([3]; 10000 nM) was 92.3%. It also gave a cell viability ([4]; 1 nM) of 98.6%, a cell viability ([4]; 10 nM) of 101% and a cell viability ([4]; 100 nM) of 101%. It also gave a cell viability ([4]; 1000 nM) of 98.5%, a cell viability ([4]; 10000 nM) of 97% and a cell viability ([5]; 1 nM) of 98.6%. For the same compound, the cell viability ([5]; 10 nM) was 103%, the cell viability ([5]; 100 nM) was 102% and the cell viability ([5]; 1000 nM) was 95.7%. For the same compound, the cell viability ([5]; 10000 nM) was 101%, the “relative viability EC50” value [6] was over 10 µM and the “relative viability EC50” value [7] was over 10 µM. For the same compound, the “relative viability EC50” value [8] was over 10 µM, the “relative viability EC50” value [9] was over 10 µM and the “relative viability EC50” value [10] was over 10 µM. For the same compound, the drug sensitivity score [11] was 0, the drug sensitivity score [12] was 0 and the drug sensitivity score [13] was 0. The drug sensitivity score [14] was 0 and the drug sensitivity score [15] was 0.

`CN(C)Cc1ccc(-c2nc3cccc4c3n2CCNC4=O)cc1` was tested, and the cell viability ([1]; 1 nM) was 92.8%, the cell viability ([1]; 10 nM) was 117% and the cell viability ([1]; 100 nM) was 104%. For the same compound, the cell viability ([1]; 1000 nM) was 100%, the cell viability ([1]; 10000 nM) was 98.2% and the cell viability ([2]; 1 nM) was 85.7%. It also gave a cell viability ([2]; 10 nM) of 90.3%, a cell viability ([2]; 100 nM) of 80.8% and a cell viability ([2]; 1000 nM) of 73.7%. The cell viability ([2]; 10000 nM) was 99.7%, the cell viability ([3]; 1 nM) was 109% and the cell viability ([3]; 10 nM) was 93.3%. The cell viability ([3]; 100 nM) was 97.5%, the cell viability ([3]; 1000 nM) was 95.9% and the cell viability ([3]; 10000 nM) was 77.1%. For the same compound, the cell viability ([4]; 1 nM) was 93.6%, the cell viability ([4]; 10 nM) was 98% and the cell viability ([4]; 100 nM) was 94.6%. The cell viability ([4]; 1000 nM) was 100%, the cell viability ([4]; 10000 nM) was 99.8% and the cell viability ([5]; 1 nM) was 104%. The cell viability ([5]; 10 nM) was 95.9%, the cell viability ([5]; 100 nM) was 103% and the cell viability ([5]; 1000 nM) was 96%. The cell viability ([5]; 10000 nM) was 101%, the “relative viability EC50” value [6] was over 10 µM and the “relative viability EC50” value [7] was over 10 µM. For the same compound, the “relative viability EC50” value [8] was over 10 µM, the “relative viability EC50” value [9] was over 10 µM and the “relative viability EC50” value [10] was over 10 µM. It also gave a drug sensitivity score [11] of 0, a drug sensitivity score [12] of 0 and a drug sensitivity score [13] of 1.4. It also gave a drug sensitivity score [14] of 0 and a drug sensitivity score [15] of 0.

`NC(=O)N/N=C/c1ccc(Oc2ccc(F)cc2)cc1` gave a cell viability ([1]; 1 nM) of 99.6%, a cell viability ([1]; 10 nM) of 98.4% and a cell viability ([1]; 100 nM) of 104%. The cell viability ([1]; 1000 nM) was 96.8%, the cell viability ([1]; 10000 nM) was 97.9% and the cell viability ([2]; 1 nM) was 99.9%. The cell viability ([2]; 10 nM) was 101%, the cell viability ([2]; 100 nM) was 80.1% and the cell viability ([2]; 1000 nM) was 92.8%. It also gave a cell viability ([2]; 10000 nM) of 109%, a cell viability ([3]; 1 nM) of 95.8% and a cell viability ([3]; 10 nM) of 106%. It also gave a cell viability ([3]; 100 nM) of 92.4%, a cell viability ([3]; 1000 nM) of 89.7% and a cell viability ([3]; 10000 nM) of 96%. It also gave a cell viability ([4]; 1 nM) of 95.9%, a cell viability ([4]; 10 nM) of 94.5% and a cell viability ([4]; 100 nM) of 98.9%. It also gave a cell viability ([4]; 1000 nM) of 97.6%, a cell viability ([4]; 10000 nM) of 99.4% and a cell viability ([5]; 1 nM) of 105%. For the same compound, the cell viability ([5]; 10 nM) was 101%, the cell viability ([5]; 100 nM) was 104% and the cell viability ([5]; 1000 nM) was 100%. For the same compound, the cell viability ([5]; 10000 nM) was 86.6%, the “relative viability EC50” value [6] was over 10 µM and the “relative viability EC50” value [7] was over 10 µM. For the same compound, the “relative viability EC50” value [8] was over 10 µM, the “relative viability EC50” value [9] was over 10 µM and the “relative viability EC50” value [10] was over 10 µM. It also gave a drug sensitivity score [11] of 0, a drug sensitivity score [12] of 0 and a drug sensitivity score [13] of 0.1. It also gave a drug sensitivity score [14] of 0 and a drug sensitivity score [15] of 0.1.

For `C[C@H]1C[C@@H]2[C@H]([C@@H](O)C[C@@]3(C)[C@H]2CC[C@]3(O)C(=O)CO)[C@@]2(C)C=CC(=O)C=C12` [methylprednisolone], the cell viability ([1]; 1 nM) was 96%, the cell viability ([1]; 10 nM) was 108% and the cell viability ([1]; 100 nM) was 90.3%. The cell viability ([1]; 1000 nM) was 99.3%, the cell viability ([1]; 10000 nM) was 98.4% and the cell viability ([2]; 1 nM) was 105%. It also gave a cell viability ([2]; 10 nM) of 102%, a cell viability ([2]; 100 nM) of 99.3% and a cell viability ([2]; 1000 nM) of 99.6%. The cell viability ([2]; 10000 nM) was 106%, the cell viability ([3]; 1 nM) was 109% and the cell viability ([3]; 10 nM) was 107%. It also gave a cell viability ([3]; 100 nM) of 103%, a cell viability ([3]; 1000 nM) of 98.5% and a cell viability ([3]; 10000 nM) of 104%. It also gave a cell viability ([4]; 1 nM) of 102%, a cell viability ([4]; 10 nM) of 97.9% and a cell viability ([4]; 100 nM) of 91.4%. The cell viability ([4]; 1000 nM) was 98.9%, the cell viability ([4]; 10000 nM) was 95.2% and the cell viability ([5]; 1 nM) was 104%. The cell viability ([5]; 10 nM) was 103%, the cell viability ([5]; 100 nM) was 96.6% and the cell viability ([5]; 1000 nM) was 106%. For the same compound, the cell viability ([5]; 10000 nM) was 101%, the “relative viability EC50” value [6] was over 10 µM and the “relative viability EC50” value [7] was over 10 µM. For the same compound, the “relative viability EC50” value [8] was over 10 µM, the “relative viability EC50” value [9] was over 10 µM and the “relative viability EC50” value [10] was over 10 µM. For the same compound, the drug sensitivity score [11] was 0, the drug sensitivity score [12] was 0 and the drug sensitivity score [13] was 0. The drug sensitivity score [14] was 0 and the drug sensitivity score [15] was 0.

`c1cc(-c2sc(-c3ccncc3)c(-c3ccncc3)c2-c2ccncc2)ccn1` [GANT-58] was tested, and the cell viability ([1]; 1 nM) was 105%, the cell viability ([1]; 10 nM) was 99% and the cell viability ([1]; 100 nM) was 94.6%. The cell viability ([1]; 1000 nM) was 92.6%, the cell viability ([1]; 10000 nM) was 86.6% and the cell viability ([2]; 1 nM) was 98.3%. For the same compound, the cell viability ([2]; 10 nM) was 94.8%, the cell viability ([2]; 100 nM) was 95.3% and the cell viability ([2]; 1000 nM) was 88.5%. The cell viability ([2]; 10000 nM) was 106%, the cell viability ([3]; 1 nM) was 90.9% and the cell viability ([3]; 10 nM) was 102%. The cell viability ([3]; 100 nM) was 97.8%, the cell viability ([3]; 1000 nM) was 118% and the cell viability ([3]; 10000 nM) was 103%. It also gave a cell viability ([4]; 1 nM) of 102%, a cell viability ([4]; 10 nM) of 99.2% and a cell viability ([4]; 100 nM) of 99.8%. For the same compound, the cell viability ([4]; 1000 nM) was 97.8%, the cell viability ([4]; 10000 nM) was 99.2% and the cell viability ([5]; 1 nM) was 93%. It also gave a cell viability ([5]; 10 nM) of 106%, a cell viability ([5]; 100 nM) of 91.7% and a cell viability ([5]; 1000 nM) of 96.4%. For the same compound, the cell viability ([5]; 10000 nM) was 111%, the “relative viability EC50” value [6] was over 10 µM and the “relative viability EC50” value [7] was over 10 µM. The “relative viability EC50” value [8] was over 10 µM, the “relative viability EC50” value [9] was over 10 µM and the “relative viability EC50” value [10] was over 10 µM. The drug sensitivity score [11] was 0.2, the drug sensitivity score [12] was 0 and the drug sensitivity score [13] was 0. The drug sensitivity score [14] was 0 and the drug sensitivity score [15] was 0.
